Data reported in patent US7399638B2, “Prediction method for lipidosis” (Takeda Pharmaceutical Company Limited, priority 2003, dated 2008).
Like-named read-outs stand apart in the source and are kept apart here. Marks after values point to notes of the source that are not given here. Each block holds one molecule with its values, some of them ahead of it.

Tests used:
[1] = tested on: Crj: CD(SD)IGS rats; conditions: rat, in vivo
Experimental: (§1) The following 10 kinds of commercially available drugs were examined as the test compounds for a potential of inducing PLsis by histopathological examination and peripheral blood lymphocyte testing.
(§2) The following experiments were performed using the prematurely autopsied animals.
(§3) The high-dose dosing suspension was diluted about 3 fold and 10 fold with dispersant/solvent to prepare intermediate- and low-dose dosing suspensions. […] [For LD50, the Summary Basis of Approval (FDA) for each drug was referenced to.]
(§4) The animals were examined for mortality, general conditions, body weight, food consumption and the like using PM4800 (Mettler) and EB3200D (Shimadzu Corporation).

[2] = tested on: Crj: CD(SD)IGS rats; assay: Urinary PAG/hippuric acid ratio by 1H NMR in rats
Experimental: During the urine pooling, the collecting vessels were kept in an ice-cooled condition. After the urine collection, the urine was centrifuged at 1500×g for 10 minutes, and not less than 1 mL of the supernatant was collected and stored under freezing (below −70° C.) in a microtube in an ultralow-temperature freezer until the measurement. For the negative control group, 24-hour pooled urine was collected under ice cooling; after the urine collection, the urine was stored at −30° C. until the measurement.

[3] = tested on: Crj: CD(SD)IGS rats; conditions: male, rat, in vivo, 3 days
Experimental: as §1, §2, §3, §4
Hematological examination was performed for parameters such as RBC count, hematocrit, hemoglobin concentration, mean corpuscular hemoglobin (MCH), mean corpuscular hemoglobin concentration (MCHC), mean corpuscular volume (MCV), platelet count, WBC count, reticulocyte count, differential WBC, and vacuolated lymphocyte ratio (for PLsis-inducing compounds only) using ADVIA120 (Bayer Medical Ltd.) and E-4000 (Sysmex Corporation).

[4] = rat 24-hour pooled urine, 1 mg/kg/day by gavage, 4 days, negative control drug, mean n = 2-4
[5] = rat 24-hour pooled urine, 3 mg/kg/day by gavage, 4 days, negative control drug, mean n = 2-4
[6] = rat 24-hour pooled urine, 30 mg/kg/day by gavage, 4 days, negative control drug, mean n = 2-4
[7] = rat 24-hour pooled urine, 100 mg/kg/day by gavage, 4 days, negative control drug, mean n = 2-4
[8] = rat urine, 30 mg/kg/day by gavage, 3 days, mean n = 3-4
[9] = rat urine, 100 mg/kg/day by gavage, 3 days, mean n = 3-4
[10] = rat urine, 300 mg/kg/day by gavage, 3 days, mean n = 3-4

Histopathological changes (PLsis): Liver ([1]; 1 mg/kg/day): − | Histopathological changes (PLsis): Lung ([1]; 1 mg/kg/day): − | Histopathological changes (PLsis): Lymph node ([1]; 1 mg/kg/day): − | Histopathological changes (PLsis): Others ([1]; 1 mg/kg/day): − | Histopathological changes (PLsis): Spleen ([1]; 1 mg/kg/day): − | Histopathological changes (PLsis): Liver ([1]; 3 mg/kg/day): − | Histopathological changes (PLsis): Lung ([1]; 3 mg/kg/day): − | Histopathological changes (PLsis): Lymph node ([1]; 3 mg/kg/day): − | Histopathological changes (PLsis): Others ([1]; 3 mg/kg/day): − | Histopathological changes (PLsis): Spleen ([1]; 3 mg/kg/day): − | PAG + hippuric acid/creatinine [2, 4]: 1.39 | PAG/PAG + hippuric acid [2, 4]: 10.79% | PAG/creatinine (first term of PAG + hippuric acid) [2, 4]: 0.15 | PAG/hippuric acid [2, 4]: 12.09% | hippuric acid/creatinine (second term of PAG + hippuric acid) [2, 4]: 1.24 | PAG + hippuric acid/creatinine [2, 5]: 1.39 | PAG/PAG + hippuric acid [2, 5]: 15.11% | PAG/creatinine (first term of PAG + hippuric acid) [2, 5]: 0.21 | PAG/hippuric acid [2, 5]: 15.41% | hippuric acid/creatinine (second term of PAG + hippuric acid) [2, 5]: 1.18
Structure (SMILES): O=C(Nc1c(Cl)cncc1Cl)c1ccc(OC(F)F)c(OCC2CC2)c1 [Roflumilast, roflumilast]

Histopathological changes (PLsis): Liver ([1]; 30 mg/kg/day): − | Histopathological changes (PLsis): Lung ([1]; 30 mg/kg/day): − | Histopathological changes (PLsis): Lymph node ([1]; 30 mg/kg/day): − | Histopathological changes (PLsis): Others ([1]; 30 mg/kg/day): − | Histopathological changes (PLsis): Spleen ([1]; 30 mg/kg/day): − | Histopathological changes (PLsis): Liver ([1]; 100 mg/kg/day): − | Histopathological changes (PLsis): Lung ([1]; 100 mg/kg/day): − | Histopathological changes (PLsis): Lymph node ([1]; 100 mg/kg/day): − | Histopathological changes (PLsis): Others ([1]; 100 mg/kg/day): − | Histopathological changes (PLsis): Spleen ([1]; 100 mg/kg/day): − | PAG + hippuric acid/creatinine [2, 6]: 1.43 | PAG/PAG + hippuric acid [2, 6]: 17.48% | PAG/creatinine (first term of PAG + hippuric acid) [2, 6]: 0.25 | PAG/hippuric acid [2, 6]: 18.22% | hippuric acid/creatinine (second term of PAG + hippuric acid) [2, 6]: 1.18 | PAG + hippuric acid/creatinine [2, 7]: 1.02 | PAG/PAG + hippuric acid [2, 7]: 13.73% | PAG/creatinine (first term of PAG + hippuric acid) [2, 7]: 0.14 | PAG/hippuric acid [2, 7]: 16.29% | hippuric acid/creatinine (second term of PAG + hippuric acid) [2, 7]: 0.88
Structure (SMILES): COc1ccc(C2CNC(=O)C2)cc1OC1CCCC1 (centres unmarked) [Rolipram, rolipram]

Structure (SMILES): COc1ccc([C@]2(C#N)CC[C@@H](C(=O)O)CC2)cc1OC1CCCC1 [Ariflo]
Histopathological changes (PLsis): Liver ([1]; 30 mg/kg/day): − | Histopathological changes (PLsis): Lung ([1]; 30 mg/kg/day): − | Histopathological changes (PLsis): Lymph node ([1]; 30 mg/kg/day): − | Histopathological changes (PLsis): Others ([1]; 30 mg/kg/day): − | Histopathological changes (PLsis): Spleen ([1]; 30 mg/kg/day): − | Histopathological changes (PLsis): Liver ([1]; 100 mg/kg/day): − | Histopathological changes (PLsis): Lung ([1]; 100 mg/kg/day): − | Histopathological changes (PLsis): Lymph node ([1]; 100 mg/kg/day): − | Histopathological changes (PLsis): Others ([1]; 100 mg/kg/day): − | Histopathological changes (PLsis): Spleen ([1]; 100 mg/kg/day): − | PAG + hippuric acid/creatinine [2, 6]: 1.34 | PAG/PAG + hippuric acid [2, 6]: 9.70% | PAG/creatinine (first term of PAG + hippuric acid) [2, 6]: 0.13 | PAG/hippuric acid [2, 6]: 12.16% | PAG + hippuric acid/creatinine [2, 7]: 1.14 | PAG/PAG + hippuric acid [2, 7]: 14.04% | PAG/creatinine (first term of PAG + hippuric acid) [2, 7]: 0.16 | PAG/hippuric acid [2, 7]: 13.91% | hippuric acid/creatinine (second term of PAG + hippuric acid) [2, 7]: 0.98

Structure (SMILES): CNCCC(Oc1ccc(C(F)(F)F)cc1)c1ccccc1 (centres unmarked) [Fluoxetine, fluoxetine]
Mean vacuolated lymphocyte ratio ([3]; 30 mg/kg/day): 7% | Mean vacuolated lymphocyte ratio ([3]; 100 mg/kg/day): 28% | Mean vacuolated lymphocyte ratio ([3]; 300 mg/kg/day): 31% | Histopathological changes (PLsis): Liver ([1]; 30 mg/kg/day): + | Histopathological changes (PLsis): Lung ([1]; 30 mg/kg/day): + | Histopathological changes (PLsis): Lymph node ([1]; 30 mg/kg/day): + | Histopathological changes (PLsis): Others ([1]; 30 mg/kg/day): Brain | Histopathological changes (PLsis): Spleen ([1]; 30 mg/kg/day): − | Histopathological changes (PLsis): Liver ([1]; 100 mg/kg/day): + | Histopathological changes (PLsis): Lung ([1]; 100 mg/kg/day): + | Histopathological changes (PLsis): Lymph node ([1]; 100 mg/kg/day): + | Histopathological changes (PLsis): Others ([1]; 100 mg/kg/day): Brain | Histopathological changes (PLsis): Spleen ([1]; 100 mg/kg/day): − | Histopathological changes (PLsis): Liver ([1]; 300 mg/kg/day): + | Histopathological changes (PLsis): Lung ([1]; 300 mg/kg/day): + | Histopathological changes (PLsis): Lymph node ([1]; 300 mg/kg/day): − | Histopathological changes (PLsis): Others ([1]; 300 mg/kg/day): − | Histopathological changes (PLsis): Spleen ([1]; 300 mg/kg/day): − | PAG + hippuric acid/creatinine [2, 8]: 1.13 | PAG/PAG + hippuric acid [2, 8]: 15.60* % | PAG/creatinine (first term of PAG + hippuric acid) [2, 8]: 0.17 | PAG/hippuric acid [2, 8]: 18.58* % | hippuric acid/creatinine (second term of PAG + hippuric acid) [2, 8]: 0.96 | PAG + hippuric acid/creatinine [2, 9]: 1.06 | PAG/PAG + hippuric acid [2, 9]: 25.90* % | PAG/creatinine (first term of PAG + hippuric acid) [2, 9]: 0.27 | PAG/hippuric acid [2, 9]: 36.86* % | hippuric acid/creatinine (second term of PAG + hippuric acid) [2, 9]: 0.79 | PAG + hippuric acid/creatinine [2, 10]: 0.67* | PAG/PAG + hippuric acid [2, 10]: 31.88* % | PAG/creatinine (first term of PAG + hippuric acid) [2, 10]: 0.20 | PAG/hippuric acid [2, 10]: 56.32* % | hippuric acid/creatinine (second term of PAG + hippuric acid) [2, 10]: 0.47
